The results in this text go back to patent publication US8575197B2, “Pyrolinone derivative and pharmaceutical composition comprising the same” (Shionogi & Co., Ltd., priority 2008, dated 2013).

The target in this assay is human P2X3 receptor (Homo sapiens (Human), UniProt P56373). Description: P2X3 receptor inhibition, ATP-evoked Fluo-3 calcium fluorescence (FDSS 3000). The settings on record: C6BU-1 cell transfected with human P2X3 receptor gene; ATP-evoked Fluo-3 fluorescence. It counts as cell-based. The method, boiled down:
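C6BU-1 cells stably transfected with human P2X3, loaded with 4 μM Fluo-3-AM for 1 h at 37 °C in HEPES buffer pH 7.5 with probenecid. Compound added 5 min before 40 nM ATP solution; fluorescence followed 3 min. IC50 from ratio of peak post-ATP to baseline fluorescence.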

Sequence of human P2X3 receptor (P56373 whole entry): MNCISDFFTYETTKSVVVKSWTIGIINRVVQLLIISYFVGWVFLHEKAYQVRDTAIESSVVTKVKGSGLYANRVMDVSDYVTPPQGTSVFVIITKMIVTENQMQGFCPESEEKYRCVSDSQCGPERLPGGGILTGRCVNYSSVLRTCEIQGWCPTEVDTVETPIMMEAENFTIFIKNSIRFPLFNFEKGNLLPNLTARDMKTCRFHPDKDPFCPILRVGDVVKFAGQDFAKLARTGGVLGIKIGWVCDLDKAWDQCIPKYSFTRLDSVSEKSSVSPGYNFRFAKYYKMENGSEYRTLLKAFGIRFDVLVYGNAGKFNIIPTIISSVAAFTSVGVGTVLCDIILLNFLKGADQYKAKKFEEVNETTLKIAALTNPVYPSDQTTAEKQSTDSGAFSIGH

Turning to `COc1cc(F)ccc1C1C(C(=O)C(C)(C)C)=C(O)C(=O)N1c1ccc(-c2ccon2)cc1` (stereo not shown) [Compound I-011], the IC50 is 270 nM.
As to `CC(C)OCc1ccccc1C1C(C(=O)C(C)C)=C(O)C(=O)N1c1ccc(-c2ccon2)cc1` (stereo not shown) [Compound I-540], the IC50 turned out to be 496 nM.
In the case of `Cc1ccc(-c2ccc(N3C(=O)C(O)=C(C(=O)C(C)C)C3c3cccnc3OC(C)C)cc2)o1` (stereo not shown) [Compound I-479], the IC50 came to 10 nM.
Consider `CNC(=O)c1n[nH]c2c1C(c1ccccc1OC)N(c1ccc(-c3ccsc3)cc1)C2=O` (stereo not shown) [II-181], for which the IC50 worked out at 301 nM.
Take `C[S+]([O-])CCOc1ccccc1C1C(C(=O)C(C)(C)C)=C(O)C(=O)N1c1ccc(-c2ccon2)cc1` (stereo not shown) [Compound I-152]: the half-inhibitory concentration (IC50) is 219 nM.
The same measure for `COc1ccc(S(=O)(=O)C2=C(O)C(=O)N(c3ccc(-c4noc(C)n4)cc3)C2C2CCCCC2)cc1` (stereo not shown) [Compound I-560]: 275 nM.
As to `CSc1ccc(N2C(=O)C(O)=C(C(=O)C(C)(C)C)C2c2ccccc2OCCO)cc1` (stereo not shown) [Compound I-081], the IC50 amounted to 151 nM.
For the molecule `COC(=O)n1nc(C(C)(C)C)c2c1C(=O)N(c1ccc(Br)cc1)C2c1ccccc1OC` (stereo not shown) [II-229], the concentration for half-maximal inhibition (IC50) came to 82 nM.
The value for `COCCOc1ncccc1C1c2c(C(C)(C)C)n[nH]c2C(=O)N1c1ccc(-c2ccon2)cc1` (stereo not shown) [II-033] was 117 nM.
The value for `COc1ccccc1C1C(C(=O)C(C)C)=C(O)C(=O)N1c1ccc(-c2cccs2)cc1` (stereo not shown) [Compound I-214] was 22 nM; that for `CC(C)Oc1ccccc1C1C(C(=O)C(C)C)=C(O)C(=O)N1c1ccc(-c2ccsc2)cc1` (stereo not shown) [Compound I-299] was 8 nM; that for `COCOc1ccccc1C1C(C(=O)C(C)C)=C(O)C(=O)N1c1ccc(-c2noc(C)n2)cc1` (stereo not shown) [Compound I-311] was 121 nM.
The same measure for `COc1ccccc1C1C(C(=O)C(C)C)=C(O)C(=O)N1c1ccc(-c2csc(C)c2)cc1` (stereo not shown) [Compound I-257]: 37 nM; for `COCc1ccccc1C1C(C(=O)CC(C)C)=C(O)C(=O)N1c1ccc(-c2csc(C)n2)cc1` (stereo not shown) [Compound I-428]: 399 nM.
As to `CC(C)c1n[nH]c2c1C(c1ccccc1OCC(=N)NO)N(c1ccc(-c3ccsc3)cc1)C2=O` (stereo not shown) [II-185], the IC50 is 11 nM.
Consider `CC(C)C(=O)C1=C(O)C(=O)N(c2ccc(-c3ccsc3)cc2)C1c1cccnc1OCCCO` (stereo not shown) [Compound I-564], for which the concentration for half-maximal inhibition (IC50) amounted to 18 nM.
Take `COCOc1ccccc1C1C(C(=O)C(C)C)=C(O)C(=O)N1c1ccc(-c2ccco2)cc1` (stereo not shown) [Compound I-230]: the IC50 amounted to 18 nM.
The value for `CNC(=O)COc1ccccc1C1C(C(=O)C(C)(C)C)=C(O)C(=O)N1c1ccc(-c2ccsc2)cc1` (stereo not shown) [Compound I-147] was 17 nM; that for `CC(C)CC(=O)C1=C(O)C(=O)N(c2ccc(-c3ccsc3)cc2)C1c1ccccc1OCCCO` (stereo not shown) [Compound I-366] was 13 nM.
In the case of `COc1ccccc1C1C(C(=O)C(C)C)=C(O)C(=O)N1c1ccc(-c2ccoc2)cc1` (stereo not shown) [Compound I-198], the half-inhibitory concentration (IC50) turned out to be 64 nM.
The same measure for `COc1ccccc1C1c2c(C(C)(C)C)n[nH]c2C(=O)N1c1ccc(C(C)=O)cc1` (stereo not shown) [II-155]: 322 nM.
The same measure for `COc1ccc(F)cc1C1C(C(=O)C(C)C)=C(O)C(=O)N1c1ccc(-c2ccc(C)o2)cc1` (stereo not shown) [Compound I-454]: 36 nM; for `Cc1ccc(-c2ccc(N3C(=O)C(O)=C(C(=O)CC(C)C)C3c3ccccc3OC(F)F)cc2)s1` (stereo not shown) [Compound I-337]: 103 nM.
The value for `COCCOc1ccccc1C1C(C(=O)C(C)(C)C)=C(O)C(=O)N1c1ccc(-c2noc(C)n2)cc1` (stereo not shown) [Compound I-129] was 91 nM; that for `CC(C)c1n[nH]c2c1C(c1ccccc1C(=O)N(C)C)N(c1ccc(-c3ccsc3)cc1)C2=O` (stereo not shown) [II-093] was 2 nM.
Regarding `COc1ccccc1C1C(S(C)(=O)=O)=C(O)C(=O)N1c1ccc(-c2ccc(C)o2)cc1` (stereo not shown) [Compound I-468], the IC50 was determined as 467 nM.
The value for `Cc1nc(-c2ccc(N3C(=O)C(O)=C(C(=O)CC(C)C)C3c3ccccc3OCCCO)cc2)no1` (stereo not shown) [Compound I-445] was 152 nM; that for `COCCN(C)C(=O)c1ccccc1C1C(C(=O)CC(C)C)=C(O)C(=O)N1c1ccc(-c2ccc(C)o2)cc1` (stereo not shown) [Compound I-496] was 55 nM.
The value for `CC(C)(C)c1n[nH]c2c1C(c1ccccc1OCC#N)N(c1ccc(-c3ccsc3)cc1)C2=O` (stereo not shown) [II-173] was 4 nM; that for `CNC(=O)c1ncccc1C1C(C(=O)CC(C)C)=C(O)C(=O)N1c1ccc(-c2ccc(C)s2)cc1` (stereo not shown) [Compound I-573] was 123 nM; that for `CC(C)(C)c1n[nH]c2c1C(c1ccccc1OCCO)N(c1ccc(-c3ccon3)cc1)C2=O` (stereo not shown) [II-100] was 31 nM.
For the molecule `COCc1ccccc1C1c2c(C(C)(C)C)n[nH]c2C(=O)N1c1ccc(-c2cc(C)no2)cc1` (stereo not shown) [II-068], the IC50 is 508 nM.
As to `COc1ccccc1C1c2c(C(C)(C)CO)n[nH]c2C(=O)N1c1ccc(-c2nccs2)cc1` (stereo not shown) [II-141], the IC50 is 22 nM.
The same measure for `COCCOc1ncccc1C1C(C(=O)C(C)(C)C)=C(O)C(=O)N1c1ccc(-c2ccsc2)cc1` (stereo not shown) [Compound I-138]: 16 nM; for `CC(C)(C)C(=O)C1=C(O)C(=O)N(c2ccc(-c3ccoc3)cc2)C1c1cccnc1OCCO` (stereo not shown) [Compound I-165]: 95 nM; for `COCCOc1ncccc1C1C(C(=O)C(C)C)=C(O)C(=O)N1c1ccc(-c2cccs2)cc1` (stereo not shown) [Compound I-228]: 15 nM.
The value for `CC(C)(C)c1n[nH]c2c1C(c1ccccc1OCCO)N(c1ccc(-c3ccco3)cc1)C2=O` (stereo not shown) [II-105] was 13 nM; that for `CCC(CC)C1C(C(=O)c2ccc(C(=O)NCCO)cc2)=C(O)C(=O)N1c1ccc(-c2ccon2)cc1` (stereo not shown) [Compound I-008] was 14 nM.
The same measure for `COc1ccccc1C1c2c(C(C)C)n[nH]c2C(=O)N1c1ccc(-c2ccsc2)c(CO)c1` (stereo not shown) [II-243]: 138 nM; for `COc1ccc2nc(N3C(=O)c4[nH]nc(C(C)(C)CO)c4C3c3ccccc3OC)sc2c1` (stereo not shown) [II-142]: 104 nM.
`COCOc1ccccc1C1C(C(=O)C(C)C)=C(O)C(=O)N1c1ccc(-c2ccoc2)cc1` (stereo not shown) [Compound I-232]: the concentration for half-maximal inhibition (IC50) came out at 24 nM.
The value for `COc1ccccc1C1C(C(=O)C(C)C)=C(O)C(=O)N1c1ccc(-c2ccsc2)c(O)c1` (stereo not shown) [Compound I-240] was 185 nM; that for `COc1ccccc1C1c2c(C(C)C)n[nH]c2C(=O)N1c1ccc(-c2ccsc2)c(C(N)=O)c1` (stereo not shown) [II-242] was 152 nM; that for `COCCOc1ncccc1C1C(C(=O)CC(C)C)=C(O)C(=O)N1c1ccc(-c2ccsc2)cc1` (stereo not shown) [Compound I-248] was 30 nM.
As to `Cc1ccc(-c2ccc(N3C(=O)C(O)=C(C(=O)C(C)C)C3c3ccccc3OC(F)F)cc2)o1` (stereo not shown) [Compound I-358], the half-maximal inhibitory concentration (IC50) is 25 nM.
The value for `CC(C)CC(=O)C1=C(O)C(=O)N(c2ccc(-c3ccsc3)cc2)C1c1ccccc1OC(F)F` (stereo not shown) [Compound I-290] was 51 nM.
The value for `COCc1ccccc1C1C(C(=O)C(C)C)=C(O)C(=O)N1c1ccc(-c2ccccc2)cc1` (stereo not shown) [Compound I-282] was 472 nM.
The same measure for `CC(C)C(=O)C1=C(O)C(=O)N(c2ccc(-c3ccoc3)cc2)C1c1ccccc1OCCO` (stereo not shown) [Compound I-190]: 40 nM.
Take `COc1ccc(C(=O)C2=C(O)C(=O)N(c3ccc(-c4ccoc4)cc3)C2C2CCCCC2)cc1` (stereo not shown) [Compound I-039]: the 50% inhibitory concentration (IC50) was determined as 12 nM.
In the case of `CCN(C)C(=O)c1ncccc1C1C(C(=O)CC(C)C)=C(O)C(=O)N1c1ccc(-c2ccc(C)s2)cc1` (stereo not shown) [Compound I-575], the IC50 was 252 nM.
The value for `CN(C)C(=O)c1ccccc1C1C(C(=O)CC(C)(C)C)=C(O)C(=O)N1c1ccc(-c2ccsc2)cc1` (stereo not shown) [Compound I-466] was 260 nM; that for `CNC(=O)COc1ccccc1C1c2c(C(C)C)n[nH]c2C(=O)N1c1ccc(-c2ccsc2)cc1` (stereo not shown) [II-049] was 11 nM; that for `COCCOc1ccccc1C1C(C(=O)CC(C)C)=C(O)C(=O)N1c1ccc(C2=NCCS2)cc1` (stereo not shown) [Compound I-410] was 151 nM.
The value for `CC(C)CC(=O)C1=C(O)C(=O)N(c2ccc(-c3ccsc3)cc2)C1c1ccccc1C(F)(F)F` (stereo not shown) [Compound I-292] was 127 nM.
The value for `COc1ccccc1C1c2c(C(C)(C)C)n[nH]c2C(=O)N1c1ccc(-c2cccn2C)cc1` (stereo not shown) [II-205] was 811 nM; that for `CC(C)(C)c1n[nH]c2c1C(c1ccccc1OCCO)N(c1ccc(-c3ccoc3)cc1)C2=O` (stereo not shown) [II-124] was 8 nM.
For `CC(=O)NCCOc1ccccc1C1c2c(C(C)C)n[nH]c2C(=O)N1c1ccc(-c2ccsc2)cc1` (stereo not shown) [II-176], the IC50 was determined as 10 nM.
For the molecule `COc1ccccc1C1c2c(C(C)(C)C)n[nH]c2C(=O)N1c1ccc(OC(F)(F)F)cc1` (stereo not shown) [II-097], the IC50 amounted to 358 nM.
The same measure for `COCCOc1ccccc1C1c2c(C(C)(C)C)n[nH]c2C(=O)N1c1ccc(-c2cccs2)cc1` (stereo not shown) [II-114]: 12 nM; for `COc1ccccc1C1c2c(C(C)C)n[nH]c2CN1c1ccc(-c2ccsc2)cc1` (stereo not shown) [II-067]: 153 nM; for `COc1ccccc1C1C(C(=O)CC(C)C)=C(O)C(=O)N1c1ccc(-c2cscn2)cc1` (stereo not shown) [Compound I-420]: 257 nM.
The value for `CC(C)C(=O)C1=C(O)C(=O)N(c2ccc(-c3ccsc3)cc2)C1c1ccccc1N1CCOCC1` (stereo not shown) [Compound I-443] was 6 nM.
The same measure for `COc1ncccc1C1c2c(C(C)(C)C)n[nH]c2C(=O)N1c1ccc(-c2noc(C)n2)cc1` (stereo not shown) [II-194]: 392 nM.
As for `CNc1cc(-c2ccc(N3C(=O)c4[nH]nc(C(C)(C)C)c4C3c3ccccc3OC)cc2)on1` (stereo not shown) [II-146], the IC50 was determined as 416 nM.
The value for `COCCOc1ncccc1C1C(C(=O)CC(C)(C)C)=C(O)C(=O)N1c1ccc(-c2ccsc2)cc1` (stereo not shown) [Compound I-463] was 127 nM.
The same measure for `Cc1ccc(-c2ccc(N3C(=O)C(O)=C(C(=O)C(C)C)C3c3ccccc3CCC(=O)NC(C)C)cc2)o1` (stereo not shown) [Compound I-538]: 119 nM.
Regarding `Cc1ccc(-c2ccc(N3C(=O)C(O)=C(C(=O)C(C)C)C3c3ccccc3CCC(N)=O)cc2)o1` (stereo not shown) [Compound I-536], the IC50 was 32 nM.

A word on the IC50: it is the concentration that gives 50% inhibition.
